Data from ChEMBL document CHEMBL1134714, “Spirocyclic nonpeptide glycoprotein IIb-IIIa antagonists. Part 1: design of potent and specific 3,9-diazaspiro[5.5]undecanes” (Bioorg Med Chem Lett, 2001).

Key:
[1] = target: Integrin alpha-IIb/beta-3 (Homo sapiens, UniProt P05106+P08514); assay: Inhibition of binding of fibrinogen to purified human GPIIb-IIIa in ELISA; assay type: protein-complex assay
[2] = target: Integrin alpha-V/beta-3 (Homo sapiens, UniProt P05106+P06756); assay: Inhibitory concentration against alphaV-beta3 integrin; assay type: protein-complex assay
Chain of Integrin alpha-V/beta-3 (P05106 27-788 limits assumed): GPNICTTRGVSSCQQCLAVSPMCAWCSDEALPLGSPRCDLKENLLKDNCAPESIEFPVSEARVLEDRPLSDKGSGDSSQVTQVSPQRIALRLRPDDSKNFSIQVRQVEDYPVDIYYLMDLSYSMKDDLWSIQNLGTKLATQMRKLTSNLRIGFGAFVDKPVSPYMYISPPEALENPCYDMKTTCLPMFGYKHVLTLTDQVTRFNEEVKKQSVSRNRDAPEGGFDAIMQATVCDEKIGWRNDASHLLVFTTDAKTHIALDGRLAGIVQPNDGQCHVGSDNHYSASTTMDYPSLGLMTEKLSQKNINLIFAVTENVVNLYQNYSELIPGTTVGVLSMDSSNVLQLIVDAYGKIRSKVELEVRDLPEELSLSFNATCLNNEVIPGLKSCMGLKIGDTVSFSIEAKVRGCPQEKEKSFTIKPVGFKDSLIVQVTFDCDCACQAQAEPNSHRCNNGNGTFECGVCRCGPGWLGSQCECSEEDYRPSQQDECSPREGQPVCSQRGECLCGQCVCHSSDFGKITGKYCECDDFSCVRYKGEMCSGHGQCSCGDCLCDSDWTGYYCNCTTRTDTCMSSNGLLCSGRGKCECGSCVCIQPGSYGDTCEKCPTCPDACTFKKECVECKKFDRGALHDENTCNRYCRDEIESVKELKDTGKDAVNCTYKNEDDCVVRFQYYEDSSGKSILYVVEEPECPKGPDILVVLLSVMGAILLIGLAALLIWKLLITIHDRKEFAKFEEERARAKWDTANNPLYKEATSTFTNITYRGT
Chain of Integrin alpha-V/beta-3 (P06756 31-889 limits assumed): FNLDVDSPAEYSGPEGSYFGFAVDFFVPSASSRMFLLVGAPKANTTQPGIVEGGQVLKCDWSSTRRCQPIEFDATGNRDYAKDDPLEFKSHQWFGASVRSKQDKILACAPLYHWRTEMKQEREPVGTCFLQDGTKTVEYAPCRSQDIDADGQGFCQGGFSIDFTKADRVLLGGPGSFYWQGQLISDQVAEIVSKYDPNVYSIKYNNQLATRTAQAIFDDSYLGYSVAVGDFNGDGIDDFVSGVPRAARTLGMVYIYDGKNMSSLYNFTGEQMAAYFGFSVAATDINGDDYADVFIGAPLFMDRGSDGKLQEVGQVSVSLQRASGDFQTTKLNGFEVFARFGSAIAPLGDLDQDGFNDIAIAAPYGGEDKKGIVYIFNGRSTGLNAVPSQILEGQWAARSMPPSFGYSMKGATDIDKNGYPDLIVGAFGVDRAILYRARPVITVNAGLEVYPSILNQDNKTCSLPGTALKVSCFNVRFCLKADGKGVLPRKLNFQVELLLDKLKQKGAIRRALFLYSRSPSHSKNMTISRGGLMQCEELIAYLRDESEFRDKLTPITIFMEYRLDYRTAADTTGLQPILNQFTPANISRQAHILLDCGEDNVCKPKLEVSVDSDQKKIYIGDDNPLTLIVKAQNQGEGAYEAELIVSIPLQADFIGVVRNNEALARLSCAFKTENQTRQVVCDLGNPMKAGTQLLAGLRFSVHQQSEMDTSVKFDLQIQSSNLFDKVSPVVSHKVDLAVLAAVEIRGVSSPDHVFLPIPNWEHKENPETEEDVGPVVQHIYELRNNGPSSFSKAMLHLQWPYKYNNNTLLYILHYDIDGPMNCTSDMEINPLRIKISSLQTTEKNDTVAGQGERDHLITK
Chain of Integrin alpha-V/beta-3 (P06756 891-1048 limits assumed): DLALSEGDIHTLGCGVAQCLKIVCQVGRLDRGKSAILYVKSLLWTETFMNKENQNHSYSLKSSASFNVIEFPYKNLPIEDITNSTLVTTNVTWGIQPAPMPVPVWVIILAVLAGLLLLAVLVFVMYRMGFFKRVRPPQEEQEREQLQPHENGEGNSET

[3] = organism: Homo sapiens; assay: Inhibition of aggregation of ADP-stimulated human platelets; assay type: functional
[4] = Oral bioavailability of compound in Sprague Dawley rats; assay type: ADME, organism-based; settings: rat, in vivo

Chain of Integrin alpha-IIb/beta-3 (P05106 27-788 limits assumed): as the sequence (P05106 27-788 limits assumed) above
Chain of Integrin alpha-IIb/beta-3 (P08514 32-887 limits assumed): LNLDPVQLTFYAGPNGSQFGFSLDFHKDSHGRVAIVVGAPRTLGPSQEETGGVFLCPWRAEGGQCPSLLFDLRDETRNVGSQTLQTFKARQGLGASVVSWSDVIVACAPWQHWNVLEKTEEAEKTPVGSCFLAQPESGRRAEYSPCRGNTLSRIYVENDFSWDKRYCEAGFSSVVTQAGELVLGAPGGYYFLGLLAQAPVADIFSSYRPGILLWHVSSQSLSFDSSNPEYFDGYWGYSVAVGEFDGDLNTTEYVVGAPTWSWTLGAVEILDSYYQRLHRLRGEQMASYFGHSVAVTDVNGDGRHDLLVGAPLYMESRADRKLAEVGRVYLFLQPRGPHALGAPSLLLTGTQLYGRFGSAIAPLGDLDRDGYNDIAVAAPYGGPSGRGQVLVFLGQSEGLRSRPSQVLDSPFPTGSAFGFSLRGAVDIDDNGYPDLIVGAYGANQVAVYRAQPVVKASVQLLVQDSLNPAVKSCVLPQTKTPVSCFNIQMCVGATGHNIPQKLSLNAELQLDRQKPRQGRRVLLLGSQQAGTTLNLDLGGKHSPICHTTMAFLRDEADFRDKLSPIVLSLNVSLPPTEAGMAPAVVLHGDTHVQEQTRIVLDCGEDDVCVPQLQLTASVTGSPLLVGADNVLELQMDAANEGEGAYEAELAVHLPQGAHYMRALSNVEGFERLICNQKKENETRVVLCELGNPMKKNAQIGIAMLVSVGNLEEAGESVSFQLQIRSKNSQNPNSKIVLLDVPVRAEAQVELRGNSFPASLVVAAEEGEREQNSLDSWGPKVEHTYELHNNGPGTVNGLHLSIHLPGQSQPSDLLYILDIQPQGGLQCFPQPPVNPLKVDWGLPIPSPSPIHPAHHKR
Chain of Integrin alpha-IIb/beta-3 (P08514 891-1039 limits assumed): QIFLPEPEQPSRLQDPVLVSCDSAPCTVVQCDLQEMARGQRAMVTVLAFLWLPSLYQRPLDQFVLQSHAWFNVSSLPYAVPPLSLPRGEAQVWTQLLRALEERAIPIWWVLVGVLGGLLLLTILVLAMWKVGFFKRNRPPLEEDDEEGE

Row | SMILES | IC50 [1] | IC50 [2] | IC50 [3] | bioavailability [4]
1 | CCCCS(=O)(=O)N[C@@H](CCC(=O)N1CCC2(CC1)CCN(c1ccncc1)CC2)C(=O)O | 0.023 µM | > 100 µM | 0.768 µM | –
2 | N=C(N)c1ccc(C(=O)N2CCC3(CCN(C(=O)CCC(=O)O)CC3)CC2)cc1 | – | > 100 µM | 13.8 µM | –
3 | N=C(N)c1ccc(N2CCC3(CCN(CCC(=O)O)CC3)CC2)cc1 | 0.16 µM | > 100 µM | 1.15 µM | –
4 | N=C(N)c1ccc(C(=O)N2CCC3(CCN(C(=O)CC(=O)O)CC3)CC2)cc1 | 9.7 µM | > 100 µM | 9.3 µM | –
5 | Cc1ccc(S(=O)(=O)N[C@@H](CCC(=O)N2CCC3(CC2)CCN(c2ccncc2)CC3)C(=O)O)cc1 | – | > 100 µM | 0.078 µM | –
6 | O=C(O)CCCCCCC(=O)N1CCC2(CC1)CCN(c1ccncc1)CC2 | – | > 100 µM | 17.8 µM | –
7 | CCCCOC(=O)N[C@@H](CCC(=O)N1CCC2(CC1)CCN(c1ccncc1)CC2)C(=O)O | 0.004 µM | > 100 µM | 0.722 µM | –
8 | O=C(N[C@@H](CCC(=O)N1CCC2(CC1)CCN(c1ccncc1)CC2)C(=O)O)OCc1ccccc1 | – | > 100 µM | 4.58 µM | –
9 | Cc1noc(C)c1S(=O)(=O)N[C@@H](CNC(=O)N1CCC2(CC1)CCN(c1ccncc1)CC2)C(=O)O | – | > 100 µM | 0.039 µM | –
10 | O=C(O)COC1CCN(C(=O)N2CCC3(CC2)CCN(c2ccncc2)CC3)CC1 | 0.21 µM | > 100 µM | 2.65 µM | –
11 | N=C(N)c1ccc(C(=O)N2CCC3(CCN(C(=O)CCCCC(=O)O)CC3)CC2)cc1 | > 100 µM | > 100 µM | 18.8 µM | –
12 | O=C(O)CCCCCC(=O)N1CCC2(CC1)CCN(c1ccncc1)CC2 | 0.27 µM | > 100 µM | 4.55 µM | –
13 | O=C(O)CCCCC(=O)N1CCC2(CC1)CCN(c1ccncc1)CC2 | – | > 100 µM | 4.54 µM | –
14 | N=C(N)c1ccc(C(=O)N2CCC3(CCN(C(=O)CCCC(=O)O)CC3)CC2)cc1 | – | > 100 µM | 10.3 µM | –
15 | Cc1noc(C)c1S(=O)(=O)N[C@@H](CCC(=O)N1CCC2(CC1)CCN(c1ccncc1)CC2)C(=O)O | – | > 100 µM | 0.021 µM | 7.3%
16 | O=C(O)CC(=O)N1CCC(C(=O)N2CCC3(CC2)CCN(c2ccncc2)CC3)CC1 | 0.043 µM | > 100 µM | 1.17 µM | –
17 | O=C(O)CCCC(=O)N1CCC2(CC1)CCN(c1ccncc1)CC2 | – | > 100 µM | 5.08 µM | –
